Test results taken from patent publication US8252737B2, “Antimicrobial peptides and methods of use” (priority 2004, dated 2012).
Values after ≈ are worked out from the molar mass of the structure shown. Where two headings read alike, the source gives them in different places.

Legend:
[1] = RP-HPLC temperature profiling (hydrophobicity and self-association/dimerization parameter PA); format: physicochemical; settings: for tR (min) 5° C.: RP-HPLC retention time at 5° C. during temperature profiling (measure of hydrophobicity); for tR (min) 80° C.: RP-HPLC retention time at 80° C. during temperature profiling; for Hydrophobicity tR5: RP-HPLC retention time at pH 2, 5° C.; for Hydrophobicity tR80: RP-HPLC retention time at pH 2, 80° C.; for tR (min) Max: maximal RP-HPLC retention time during temperature profiling 5-80° C.; for PA (min) association parameter: maximal retention time difference relative to control peptide C within 5-80° C.; for PA (dimerization / self-association parameter): maximal retention time difference relative to control peptide C, 5-80° C.; for ΔtR (X-NVL) (min) 5° C.: retention time difference relative to native peptide V681 (NVL) at 5° C.; for ΔtR (X-NVL) (min) 80° C.: retention time difference relative to native peptide V681 (NVL) at 80° C.
Procedure, shortened: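 RP-HPLC retention times recorded over temperature profiling from 5°C to 80°C, with retention relative to native V681 at each limit used as hydrophobicity. Self-association parameter PA defined as the maximal change in retention time from 5°C, after subtracting that of monomeric random-coil control peptide C.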

[2] = test system: Pseudomonas aeruginosa strains; settings: for Antimicrobial activity Fold: fold improvement in geometric mean MIC compared to V681; for MIC CP 204: strain CP 204
C. albicans = test system: C. albicans
Procedure, shortened: (§1)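 Microtiter dilution in LB no-salt or Mueller-Hinton medium, with BHI for Pseudomonas aeruginosa clinical isolates (final inoculum 1×10^6 CFU/ml). Plates were incubated 24 hours at 37° C. MIC was the lowest peptide concentration inhibiting growth.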

E. faecalis = test system: E. faecalis
Procedure, shortened: as §1

[3] = test system: Staphylococcus epidermidis
[4] = non-polar face substitutions, relative hydrophobicity
[5] = methicillin-resistant clinical strain
[6] = geometric mean of six Pseudomonas aeruginosa clinical isolates

| SMILES | tR (min) 5° C. [1] [min] | tR (min) 80° C. [1] [min] | Hydrophobicity tR5 [1] [min] | Hydrophobicity tR80 [1] [min] | tR (min) Max [1] [min] | PA (min) association parameter [1] [min] | PA (dimerization / self-association parameter) [1] | ΔtR (X-NVL) (min) 5° C. [1, 4] [min] | ΔtR (X-NVL) (min) 80° C. [1, 4] [min] | Antimicrobial activity Fold [2] | MIC CP 204 [2] [µg/mL] | MIC (μg/ml) E. faecalis C625 wt (E. faecalis) [µg/mL] | MIC (μg/ml) S. aureus 623 methR (Staphylococcus aureus; [5]) [µg/mL] | MIC (μg/ml) S. aureus 622 wt (Staphylococcus aureus; wild type strain) [µg/mL] | MIC (μg/ml) S. epidermidis C621 wt [3] [µg/mL] | MIC (μg/ml) B. subtilis C971 wt (Bacillus subtilis) [µg/mL] | MIC GM [2, 6] [µg/mL] | MIC M 2 ([2]; strain M 2) [µg/mL] | MIC PA 14 ([2]; strain PA 14) [µg/mL] | MIC PAK ([2]; strain PAK) [µg/mL] | further results |
| --- | --- | --- | --- | --- | --- | --- | --- | --- | --- | --- | --- | --- | --- | --- | --- | --- | --- | --- | --- | --- | --- |
| CC[C@H](C)[C@H](NC(=O)[C@H](C)NC(=O)[C@H](CCCCN)NC(=O)[C@H](CC(C)C)NC(=O)[C@H](C)NC(=O)[C@@H](NC(=O)[C@H](Cc1c[nH]cn1)NC(=O)[C@H](CC(C)C)NC(=O)[C@@H](NC(=O)[C@@H](NC(=O)[C@H](CCCCN)NC(=O)[C@@H](C)NC(=O)[C@H](C)NC(=O)[C@H](CO)NC(=O)[C@H](CCCCN)NC(=O)[C@H](Cc1ccccc1)NC(=O)[C@@H](NC(=O)[C@H](CCCCN)NC(=O)[C@H](CC(C)C)NC(=O)[C@H](Cc1ccccc1)NC(=O)[C@H](CO)NC(=O)[C@H](CCCCN)NC(=O)[C@H](Cc1c[nH]c2ccccc12)NC(=O)[C@H](CCCCN)NC(C)=O)[C@@H](C)O)[C@@H](C)O)C(C)C)[C@@H](C)O)C(=O)N[C@@H](CO)C(=O)N[C@@H](CO)C(N)=O [NAD] | 40.49 | 38.00 | 81.2 | 73.2 | 41.01 | 2.19 | 4.1 | -7.61 | -7.83 | 1.3 | 7.8 (≈ 2.66 µM) | 12.5 (≈ 4.26 µM) | 3.1 (≈ 1.06 µM) | 1.6 (≈ 0.545 µM) | 1.6 (≈ 0.545 µM) | 3.1 (≈ 1.06 µM) | – | – | – | – | MIC GM ([2]; strains): 22.1 µg/mL (≈ 7.53 µM); MIC M 2 ([2]; strains): 7.8 µg/mL (≈ 2.66 µM); MIC PA 14 ([2]; strains): 31.3 µg/mL (≈ 10.7 µM); MIC PAK ([2]; strains): 62.5 µg/mL (≈ 21.3 µM); MIC PAO 1 ([2]; strains): 15.6 µg/mL (≈ 5.32 µM); MIC WR 5 ([2]; strains): 62.5 µg/mL (≈ 21.3 µM); MIC (μg/ml) C. albicans (C. albicans): 12.5 µg/mL (≈ 4.26 µM) |
| CC[C@H](C)[C@H](NC(=O)[C@H](C)NC(=O)[C@H](CCCCN)NC(=O)[C@H](CC(C)C)NC(=O)[C@H](C)NC(=O)[C@@H](NC(=O)[C@H](Cc1cnc[nH]1)NC(=O)[C@H](CC(C)C)NC(=O)[C@@H](NC(=O)[C@@H](NC(=O)[C@H](CCCCN)NC(=O)[C@H](CCCCN)NC(=O)[C@H](C)NC(=O)[C@H](CO)NC(=O)[C@H](CCCCN)NC(=O)[C@H](Cc1ccccc1)NC(=O)[C@@H](NC(=O)[C@H](CCCCN)NC(=O)[C@H](CC(C)C)NC(=O)[C@H](Cc1ccccc1)NC(=O)[C@H](CO)NC(=O)[C@H](CCCCN)NC(=O)[C@H](Cc1c[nH]c2ccccc12)NC(=O)[C@H](CCCCN)NC(C)=O)[C@@H](C)O)[C@@H](C)O)C(C)C)[C@@H](C)O)C(=O)N[C@@H](CO)C(=O)N[C@@H](CO)C(N)=O [NKL] | 36.85 | 33.22 | 74.9 | 64.7 | 36.91 | 1.10 | 2.1 | -11.25 | -12.61 | 0.6 | 7.8 (≈ 2.61 µM) | – | – | – | 6.3 (≈ 2.11 µM) | 3.1 (≈ 1.04 µM) | 49.6 (≈ 16.6 µM) | 31.3 (≈ 10.5 µM) | 62.5 (≈ 20.9 µM) | 125.0 (≈ 41.8 µM) | decrease in hydrophobicity relative to NVL (V681) ([1]; RP-HPLC retention time difference at 80° C., non-polar face substitutions): -12.61 min; MIC (μg/ml) CP 204 ([2]; Pseudomonas aeruginosa clinical isolate CP 204): 7.8 µg/mL (≈ 2.61 µM); MIC (μg/ml) M 2 ([2]; Pseudomonas aeruginosa clinical isolate M 2): 31.3 µg/mL (≈ 10.5 µM); MIC (μg/ml) PA 14 ([2]; Pseudomonas aeruginosa clinical isolate PA 14): 62.5 µg/mL (≈ 20.9 µM); MIC (μg/ml) PAK ([2]; Pseudomonas aeruginosa clinical isolate PAK): 125.0 µg/mL (≈ 41.8 µM); MIC (μg/ml) PAO 1 ([2]; Pseudomonas aeruginosa clinical isolate PAO 1): 31.3 µg/mL (≈ 10.5 µM); MIC (μg/ml) WR 5 ([2]; Pseudomonas aeruginosa clinical isolate WR 5): 250.0 µg/mL (≈ 83.6 µM); MIC (μg/ml) GM ([2]; geometric mean of the MIC values for the 6 Pseudomonas aeruginosa clinical isolates): 49.6 µg/mL (≈ 16.6 µM); MIC PAO 1 ([2]; strain PAO 1): 31.3 µg/mL (≈ 10.5 µM); MIC WR 5 ([2]; strain WR 5): 250.0 µg/mL (≈ 83.6 µM); MIC (μg/ml) C. albicans (C. albicans; fungus): 50.0 µg/mL (≈ 16.7 µM); MIC (μg/ml) E. faecalis C625 wt (E. faecalis; wild type strain): 50.0 µg/mL (≈ 16.7 µM); MIC (μg/ml) S. aureus 622 wt (Staphylococcus aureus): 12.5 µg/mL (≈ 4.18 µM); MIC (μg/ml) S. aureus 623 methR (Staphylococcus aureus): 12.5 µg/mL (≈ 4.18 µM) |
| CC[C@H](C)[C@H](NC(=O)[C@H](C)NC(=O)[C@H](CCCCN)NC(=O)[C@H](CC(C)C)NC(=O)[C@H](C)NC(=O)[C@@H](NC(=O)[C@H](Cc1c[nH]cn1)NC(=O)[C@H](CC(C)C)NC(=O)[C@@H](NC(=O)[C@@H](NC(=O)[C@H](CCCCN)NC(=O)[C@@H](NC(=O)[C@H](C)NC(=O)[C@H](CO)NC(=O)[C@H](CCCCN)NC(=O)[C@H](Cc1ccccc1)NC(=O)[C@@H](NC(=O)[C@H](CCCCN)NC(=O)[C@H](CC(C)C)NC(=O)[C@H](Cc1ccccc1)NC(=O)[C@H](CO)NC(=O)[C@H](CCCCN)NC(=O)[C@H](Cc1c[nH]c2ccccc12)NC(=O)[C@H](CCCCN)NC(C)=O)[C@@H](C)O)C(C)C)[C@@H](C)O)C(C)C)[C@@H](C)O)C(=O)N[C@@H](CO)C(=O)N[C@@H](CO)C(N)=O [Peptide V681, reference compound] | 48.10 | 45.83 | 96.6 | 88.8 | 49.99 | 3.63 | 7.2 | 0 | 0 | 1.0 | 15.6 (≈ 5.27 µM) | 6.3 (≈ 2.13 µM) | 6.3 (≈ 2.13 µM) | 3.1 (≈ 1.05 µM) | 6.3 (≈ 2.13 µM) | 3.1 (≈ 1.05 µM) | 27.8 (≈ 9.39 µM) | 15.6 (≈ 5.27 µM) | 62.5 (≈ 21.1 µM) | 31.3 (≈ 10.6 µM) | overall hydrophobicity change relative to PVL ([1]; RP-HPLC retention time difference at 80° C., polar face substitutions): -0.35 min; ΔtR (X-PSL) (min) 5° C. ([1]; polar face substitutions, retention time difference relative to native peptide V681 (PSL) at 5° C., relative hydrophobicity): 0 min; ΔtR (X-PSL) (min) 80° C. ([1]; polar face substitutions, retention time difference relative to native peptide V681 (PSL) at 80° C., relative hydrophobicity): 0 min; MIC PAO 1 ([2]; strain PAO 1): 15.6 µg/mL (≈ 5.27 µM); MIC WR 5 ([2]; strain WR 5): 62.5 µg/mL (≈ 21.1 µM); MIC (μg/ml) C. albicans (C. albicans; fungus): 12.5 µg/mL (≈ 4.22 µM) |
